According to ChEMBL document CHEMBL5532712, “A Screening of 10,240 NatureBank Fractions Identifies Nematicidal Activity in Agelasine-Containing Extracts from Sponges” (J Nat Prod, 2024):

Experiments:
[1] = tested on: Caenorhabditis elegans; assay: Nematicidal activity against Caenorhabditis elegans assessed as total paralysis at 100 to 200 uM relative to control; assay type: functional; conditions: dose 100-200 µM
[2] = tested on: Caenorhabditis elegans; assay: Nematicidal activity against Caenorhabditis elegans assessed as reduction in larval motility; assay type: functional, organism-based
[3] = Toxicity in Zebrafish embryo assessed as reduction in viability at 100 uM measured after 24 hrs by microscope based analysis relative to control; design: species or system Danio rerio; conditions: read-out: Activity
[4] = Toxicity in Zebrafish embryo assessed as reduction in viability at 50 uM measured after 24 hrs by microscope based analysis relative to control; design: species or system Danio rerio; conditions: read-out: Activity

SMILES | Activity [1] [%] | IC50 [2] [µM] | mortality at 24 h, 100 µM [3] [%] | mortality at 24 h, 50 µM [4] [%]
CC1=CC(=O)C[C@@H]2[C@@](C)(CC/C(C)=C/C[n+]3cn(C)c4ncnc(N)c43)[C@H](C)CC[C@@]12C | 100 | 50 | 100 | 100
CC1=CCC[C@@H]2[C@@](C)(CC/C(C)=C/Cn3c[n+](C)c4ncnc(N)c43)[C@H](C)CC[C@@]12C | – | – | 100 | 100
C=CCCCCCCCCC[C@@H](O)[C@H](C)N [HALAMINOL A] | – | – | 66.6 | 100
